Patent US11779565B2, “Small organic molecules for use in the treatment of neuroinflammatory disorders” (THE MEDICAL RESEARCH, INFRASTRUCTURE AND HEALTH SERVICES …, priority 2017, dated 2023)

Legend:
RR-EAE mice = assay: RR-EAE model in SJL mice, clinical score; assay type: in vivo; details: for EAE clinical score: 10 mg/kg/day i.p.
Protocol: RR-EAE was induced in SJL female mice (6-8 week old) by subcutaneous immunization (day 0) with 100 μg/mouse proteolipid protein peptide (PLP139-151, synthesized by Sigma-Aldrich) in 0.1 ml PBS. The peptide was emulsified in an equal volume of Complete Freund's Adjuvant (CFA, from DIFCO) containing 500 μg Mycobacterium tuberculosis H37RA (MT, from DIFCO). The mice also received an intraperitoneal injection of 300 ng pertussis toxin (PTX, from Sigma-Aldrich) in 0.2 ml PBS. A second injection of PTX (300 ng/mouse) was given 48 h later.
Mice were monitored for symptoms of RR-EAE and were scored as follows: “0” for no disease; “1”, tail paralysis; “2”, hind limb weakness; “3”, hind limb paralysis; “4”, hind limb and forelimb weakness/paralysis; “5”, moribund.
The effect of the small molecule inhibitors that were identified in Example 1 above was further tested in vivo using the experimental autoimmune encephalomyelitis (EAE) model in SJL mice. EAE serves as a model for Relapsing/Remitting multiple sclerosis (MS). EAE was induced as described in the experimental procedures section. SMs 1-9 or vehicle alone (5% DMSO in PBS) were daily administered by intraperitoneal injections of 250 μg/mouse (10 mg/kg/day), starting from day 9 post immunization, for the next 30 days. The animals were monitored until day 45 post-induction for symptoms of EAE and scored as follows: 0=no disease, 1=tail paralysis, 2=hind limb weakness, 3=hind limb paralysis, 4=hind limb plus forelimb paralysis, and 5=moribund.
Experiments were repeated with the 4 above-mentioned molecules SM1, SM6, SM7 & SM9. The experiment was conducted under similar conditions as the previous one, except that two dosages of the molecules were administered: a dose of 10 mg/kg and dose of 20 mg/kg, namely 250 μg/mouse and 500 μg/mouse on days 9-38 (see FIG. 4).

SMAD1/5/8 signaling = SMAD1/5/8 signaling by Western blot in P19 cells; assay type: cell-based, murine; details: 4 h
Protocol: P19 cells were seeded in 6-well-plates (3.5×10^5 cells/well). On the following day, the cells were either untreated or treated with 5×10^−7 M RA, 5 ng/ml BMP-2 or SMs for 4 h. Cells were washed with ice cold PBS, harvested and lysed with ice cold RIPA buffer (Sigma-Aldrich) supplemented with protease inhibitor cocktail and sodium orthovanadate (Na3VO4) as phosphatase inhibitor (Sigma-Aldrich). Protein concentrations were determined using a BCA protein assay kit (Pierce, Rockford, Ill.). Cell lysates (40-60 μg protein) were separated by 4-15% SDS-PAGE gel electrophoresis and then transferred to nitrocellulose membranes at 0.2 A for 2 h. The membranes were blocked at room temperature for 1 h in 5% (w/v) non-fat-dried milk and then incubated with anti-phospho-Smad1/5/9, anti-Smad1 (Cell signaling Technology, Beverly, Mass., USA) and anti-tubulin (Sigma-Aldrich) antibodies at room temperature for 2 h. The membranes were washed and incubated with alkaline phosphatase-conjugated secondary antibody (Jackson Laboratories Immune Research, PA, USA). Signal was detected using enhanced chemiluminescence kit (Clarity, Bio-Rad Laboratories, Richmond, Calif.) and digital images were captured by MicroChemi (DNR Bio-imaging Systems, Jerusalem, Israel). Protein levels were quantified using ImageJ software and normalized to {alpha}-tubulin.
The canonical BMP signal is known to be mediated via SMAD phosphorylation. BMPs transduce signals by binding to complexes of type I and II serine/threonine kinase receptors. Ligand binding induces phosphorylation of the receptors, which then activate canonical signaling via receptor Smads (R-Smads) 1, 5 and 8. R-Smads are phosphorylated by the activated type I receptor. They then complex with Smad4, triggering nuclear translocation. The effect of the SMs on the phosphorylation of the canonical SMAD1/5/8 signaling, induced in P19 cells in response to stimulation with BMP-2, was examined.

BMP-4 = molecular target: T1, BMP-4 (Homo sapiens, UniProt P12644); assay: ATDC5 bioassay with rhBMP-4 stimulation instead of rhBMP-2 (ALP); assay type: cell-based, mouse; details: ATDC5 cells; for effect on ALP production induced by BMP-4 compared with BMP-2: 2.5 μM and 5 μM; for inhibition at 2.5 µM: read-out: inhibition of BMP-4 (ALP induction)
T1 sequence (P12644 293-408): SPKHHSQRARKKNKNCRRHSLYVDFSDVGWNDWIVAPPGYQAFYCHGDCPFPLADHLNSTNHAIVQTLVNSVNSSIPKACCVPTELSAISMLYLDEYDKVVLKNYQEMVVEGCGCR
Protocol: Poly-L-lysine (Sigma-Aldrich) was added to 384-well plates and was removed after 30 min of incubation at RT. An assay medium containing DMEM/F12, 2% FBS, 100 units/ml penicillin, […] streptomycin (Biological industries) was added to each well. […] ATDC5 cells (Sigma-Aldrich) were harvested, re-suspended in assay medium and added to a final concentration of 2000 cells/well. Finally, heparin (Sigma-Aldrich) was added to a final concentration of 2 μg/ml. The cells were incubated for 48 hours at 37° C. with 5% CO2 in a humidified chamber in the presence or absence of potential small molecule inhibitors of BPM-2. After incubation, ALP levels and cell viability were determined using a completely automated protocol. Cells were washed with PBS, lysed using a lysis buffer containing 0.2% Triton X-100 in PBS supplemented with a protease inhibitor cocktail (Sigma-Aldrich) and incubated for 25 min at RT. ALP level was then determined by addition of CDP-Star® chemiluminescent substrate (Sigma-Aldrich) and measurement of luminescence after incubation for 25 min at RT in the dark. Cell viability was finally determined by addition of CellTiter-Glo® reagent (Biological Industries) and luminescence measurement after 10 min of incubation.
Due to the high homology between BMP-2 and BMP-4, the ability of the SMs to inhibit BMP-2 and BMP-4 signaling (similar to the effect of the anti-BMP-2/4 mAb) was also examined.

[1] = first experiment, 10 mg/kg/day i.p. from day 9 for 30 days, vs. vehicle
[2] = second experiment, 10 and 20 mg/kg, vs. vehicle
[3] = second experiment, high dosage 20 mg/kg, days 9-38, vs. vehicle
[4] = second experiment, low dosage 10 mg/kg, days 9-38, vs. vehicle
[5] = first experiment, day 21 post immunization (vehicle 1.1±0.3)

**Q.** With `COC(=O)c1sccc1N/N=C(\C#N)S(=O)(=O)c1cccs1` [SM1, Methyl 3-[(2E)-2-[cyano(thiophen-2-ylsulfonyl)methylidene]hydrazinyl]thiophene-2-carboxylate] as the compound, how does the “effect on EAE clinical score” value (RR-EAE mice; [1]) read?
**A.** beneficial effect

**Q.** And the EAE clinical score (RR-EAE mice; first experiment, day 19 post immunization (vehicle 1.1±0.3))?
**A.** 0.5±0.2

**Q.** What about the EAE clinical score (RR-EAE mice; first experiment, day 27) of the same compound?
**A.** 0.3±0.3

**Q.** What about the “number of mice with moderate-severe EAE (clinical score at least 2)” value (RR-EAE mice; [2]) of the same compound?
**A.** beneficial effect

**Q.** And the “effect on EAE clinical score” value (RR-EAE mice; [3])?
**A.** trend for amelioration

**Q.** And the “effect on EAE clinical score” value (RR-EAE mice; [4])?
**A.** significant beneficial effect

**Q.** What about the “reduction in p-SMAD/tubulin compared to stimulation with BMP-2 alone” value (shortened to “reduction in p-SMAD/tubulin”) (SMAD1/5/8 signaling; 2.5 μM) of the same compound?
**A.** 24.2%

**Q.** And the “reduction in p-SMAD/tubulin” value (SMAD1/5/8 signaling; 5 μM)?
**A.** 19.9%

**Q.** And the “effect on ALP production induced by BMP-4 compared with BMP-2” value (BMP-4)?
**A.** same effect

**Q.** What does the source list for `O=C(Nc1cccc(C(F)(F)F)c1)c1ccc([N+](=O)[O-])o1` [SM6, N2-[3-(trifluoromethyl)phenyl)-5-nitro-2-furamide]?
**A.** effect on EAE clinical score (RR-EAE mice; [1]): did not show any beneficial effect; effect on EAE clinical score (RR-EAE mice; second experiment, 10 and 20 mg/kg, days 9-38): milder and not significant; number of mice with moderate-severe EAE (clinical score at least 2) (RR-EAE mice; [2]): reduced; number of mice with a more severe EAE (RR-EAE mice; second experiment, during the second relapse (vehicle 5-6 mice)): 2-3 mice; number of mice with a more severe EAE (RR-EAE mice; second experiment, during the third relapse (vehicle 8-9 mice)): 5-7 mice; effect on ALP production induced by BMP-4 compared with BMP-2 (BMP-4): same effect

**Q.** With `N#Cc1c(O)nsc1Nc1ccccc1C(F)(F)F` [SM7, 3-hydroxy-5-[2-(trifluoromethyl)aniline]isothiazole-4-carbonitrile] as the compound, how does the “effect on EAE clinical score” value (RR-EAE mice; [1]) read?
**A.** beneficial effect

**Q.** What about the EAE clinical score (RR-EAE mice; [5]) of the same compound?
**A.** 0.6±0.1

**Q.** What about the “mice died by the end of the experiment” value (RR-EAE mice; second experiment, high dose group 20 mg/kg, day 48) of the same compound?
**A.** all of the mice died

**Q.** What about the “mice died by the end of the experiment” value (RR-EAE mice; second experiment, low dose group 10 mg/kg, day 48, n=14) of the same compound?
**A.** 8 mice

**Q.** What about the “reduction in p-SMAD/tubulin” value (SMAD1/5/8 signaling; 2.5 μM) of the same compound?
**A.** 40.0%

**Q.** And the “effect on ALP production induced by BMP-4 compared with BMP-2” value (BMP-4)?
**A.** inhibit BMP-2 slightly more than BMP-4

**Q.** And the inhibition at 2.5 µM (BMP-4)?
**A.** 29.8%

**Q.** Which results are given for `CS(=O)(=O)c1noc(-c2ccc(Cl)cc2)c1C#N` [SM9, 5-(4-chlorophenyl)-3-methylsulfonyl-1,2-oxazole-4-carbonitrile]?
**A.** effect on EAE clinical score (RR-EAE mice; [1]): beneficial effect; EAE clinical score (RR-EAE mice; [5]): 0.8±0.3; number of mice with moderate-severe EAE (clinical score at least 2) (RR-EAE mice; [2]): beneficial effect; effect on EAE clinical score (RR-EAE mice; [3]): ameliorated EAE; effect on EAE clinical score (RR-EAE mice; [4]): ameliorated EAE; reduction in p-SMAD/tubulin compared to stimulation with BMP-2 alone (SMAD1/5/8 signaling; 2.5 μM): 42.7%; effect on ALP production induced by BMP-4 compared with BMP-2 (BMP-4): inhibit BMP-2 slightly more than BMP-4; inhibition at 2.5 µM (BMP-4): 18.9%
